Measured values as given in patent US20190209501A1, “COMPOSITIONS AND METHODS OF USE OF BETA-HYDROXY-BETA-METHYLBUTYRATE (HMB) […] IN[…]” (Texas Tech University Office of Research Commercialization, priority 2018, published 2019).

Assays:
Format in all cases: in vivo, human
[1] = Resting energy expenditure and substrate utilization (RQ) via indirect calorimetry; details: for RMR Δ / RMR Δ (%) / RQ Δ / RQ Δ (%): baseline to W 8; for RMR ES (d) / RQ ES (d): effect size
Description: REE and substrate utilization were assessed via indirect calorimetry (TrueOne 2400. ParvoMedics, Sandy, Utah, USA). Gas and flow calibrations were performed each morning according to manufacturer specifications, and the pre-assessment procedures of Compher et al. (34) were utilized. Participants were instructed to remain motionless but awake during the assessment, which took place in a climate-controlled room with the lights dimmed. The first five minutes of each test were discarded, and the assessment continued until there was a period of 5 consecutive minutes with a coefficient of variation (CV) for REE of ≤5%. The average CV for REE in the present study was 3.2±1.1% (mean±SD).

[2] = Questionnaires (Mood and Feelings, Pittsburgh Sleep Quality Index, Three-Factor Eating); details: for MFQ Δ / MFQ Δ (%) / PSQI Δ / PSQI Δ (%) / TFEQ-CR Δ / TFEQ-CR Δ (%) / TFEQ-EE Δ / TFEQ-EE Δ (%) / TFEQ-UE Δ / TFEQ-UE Δ (%): change baseline to W 8
From the text: As part of the screening procedures, participants were interviewed using a lifestyle questionnaire for determination of baseline eating and exercise habits. Participants completed follow-up lifestyle questionnaires at subsequent research visits. Additionally, participants completed the Mood and Feelings Questionnaire (38), the Pittsburgh Sleep Quality Index (39), the Three-Factor Eating Questionnaire Revised 18-item version (40) and a menstrual cycle questionnaire at each morning laboratory assessment session.

[3] = Resistance training workout volume; details: for LB Volume ES (d) / LS Session Volume ES (d) / UB Session Volume ES (d) / UB Volume ES (d): effect size; for LB Volume Δ / LB Volume Δ (%) / LS Session Volume Δ / LS Session Volume Δ (%) / UB Session Volume Δ / UB Session Volume Δ (%) / UB Volume Δ / UB Volume Δ (%): first to second 4 weeks
From the text: All groups completed 8 weeks of supervised RT in conjunction with the assigned dietary and supplementation programs. Training took place within the research laboratories under direct supervision. RT sessions were completed on 3 nonconsecutive days each week (i.e. Mondays, Wednesdays and Fridays), and upper- and lower-body sessions were alternated (Table 1).
Participants were instructed to train to momentary muscular exhaustion for each set, and the load was adjusted as necessary to ensure compliance with the specified repetition range. The weights and repetitions completed for each set of each exercise were recorded to allow for calculation of RT volume. Sessions took place between 12:00 and 18:00. […] Following each RT session, participants from each group were provided with 25 g whey protein (Elite 100% Whey, Dymatize Enterprises, LLC, Dallas, Tex. USA).

Compound `CC(C)(O)CC(=O)O` [TRFHMB, β-hydroxy-β-methylbutyrate] has an RMR ([1]; ITT, Baseline) of 1466 ± 48 kcal/day, an RQ ([1]; ITT, Baseline) of 0.82 ± 0.02 au and an RMR ([1]; ITT, W 8) of 1481 ± 44 kcal/day. The “RMR Δ” value ([1]; ITT) was 15 kcal/day, the “RMR Δ (%)” value ([1]; ITT) was 1% and the “RQ Δ” value ([1]; ITT) was −0.03 au. For the same compound, the “RQ Δ (%)” value ([1]; ITT) was −4%, the “RMR ES (d)” value ([1]; ITT) was 0.09 and the “RQ ES (d)” value ([1]; ITT) was −0.42. For the same compound, the RMR ([1]; PP, Baseline) was 1472 ± 61 kcal/day, the RQ ([1]; PP, Baseline) was 0.81 ± 0.03 au and the RMR ([1]; PP, W 8) was 1519 ± 57 kcal/day. The RQ ([1]; PP, W 8) was 0.78 ± 0.02 au, the “RMR Δ” value ([1]; PP) was 47 kcal/day and the “RMR Δ (%)” value ([1]; PP) was 3%. For the same compound, the “RQ Δ” value ([1]; PP) was −0.03 au, the “RQ Δ (%)” value ([1]; PP) was −4% and the “RMR ES (d)” value ([1]; PP) was 0.30. The “RQ ES (d)” value ([1]; PP) was −0.44, the “Resting metabolic rate change” value ([1]; versus baseline) was “+47 kcal/d” and the “Resting metabolic rate change (%)” value ([1]; versus baseline) was 3%. For the same compound, the MFQ score ([2]; ITT, Baseline, mean ± SE) was 1.4 ± 0.6, the PSQI score ([2]; ITT, Baseline, mean ± SE) was 3.1 ± 0.3 and the TFEQ-CR score ([2]; ITT, Baseline, mean ± SE) was 17.8 ± 1. It also gave a TFEQ-UE score ([2]; ITT, Baseline, mean ± SE) of 20.0 ± 1.2, an MFQ score ([2]; ITT, W 4, mean ± SE) of 0.7 ± 0.4 and a PSQI score ([2]; ITT, W 4, mean ± SE) of 3.0 ± 0.3. It also gave a TFEQ-CR score ([2]; ITT, W 4, mean ± SE) of 18.0 ± 1, a TFEQ-EE score ([2]; ITT, W 4, mean ± SE) of 4.9 ± 0.5 and a TFEQ-UE score ([2]; ITT, W 4, mean ± SE) of 18.1 ± 1.4. The MFQ score ([2]; ITT, W 8, mean ± SE) was 0.4 ± 0.4, the PSQI score ([2]; ITT, W 8, mean ± SE) was 2.7 ± 0.2 and the TFEQ-CR score ([2]; ITT, W 8, mean ± SE) was 18.2 ± 1.1. For the same compound, the TFEQ-EE score ([2]; ITT, W 8, mean ± SE) was 4.5 ± 0.6, the TFEQ-UE score ([2]; ITT, W 8, mean ± SE) was 16.3 ± 1.3 and the “MFQ Δ” value ([2]; ITT) was −1.0. For the same compound, the “MFQ Δ (%)” value ([2]; ITT) was −71%, the “PSQI Δ” value ([2]; ITT) was −0.4 and the “PSQI Δ (%)” value ([2]; ITT) was −13%. The “TFEQ-CR Δ” value ([2]; ITT) was 0.4, the “TFEQ-CR Δ (%)” value ([2]; ITT) was 2% and the “TFEQ-EE Δ” value ([2]; ITT) was −0.9. For the same compound, the “TFEQ-EE Δ (%)” value ([2]; ITT) was −17%, the “TFEQ-UE Δ” value ([2]; ITT) was −3.7 and the “TFEQ-UE Δ (%)” value ([2]; ITT) was −19%. The “MFQ (Mood and Feelings Questionnaire) score” value ([2]; PP, Baseline, mean ± SE) was 1.1 ± 0.7, the “PSQI (Pittsburgh Sleep Quality Index) score” value ([2]; PP, Baseline, mean ± SE) was 3.1 ± 0.3 and the “TFEQ-CR (Three-Factor Eating Questionnaire, Cognitive Restraint) score” value ([2]; PP, Baseline, mean ± SE) was 17.1 ± 1.2. The “TFEQ-EE (Emotional Eating) score” value ([2]; PP, Baseline, mean ± SE) was 4.9 ± 0.6, the “TFEQ-UE (Uncontrolled Eating) score” value ([2]; PP, Baseline, mean ± SE) was 18.4 ± 1.3 and the MFQ score ([2]; PP, W 4, mean ± SE) was 0.6 ± 0.5. The PSQI score ([2]; PP, W 4, mean ± SE) was 2.7 ± 0.3, the TFEQ-CR score ([2]; PP, W 4, mean ± SE) was 18.3 ± 1.2 and the TFEQ-EE score ([2]; PP, W 4, mean ± SE) was 4.4 ± 0.7. The TFEQ-UE score ([2]; PP, W 4, mean ± SE) was 18.7 ± 2.0, the MFQ score ([2]; PP, W 8, mean ± SE) was 0.1 ± 0.5 and the PSQI score ([2]; PP, W 8, mean ± SE) was 2.6 ± 0.3. It also gave a TFEQ-CR score ([2]; PP, W 8, mean ± SE) of 18.8 ± 1.1, a TFEQ-EE score ([2]; PP, W 8, mean ± SE) of 3.7 ± 0.7 and a TFEQ-UE score ([2]; PP, W 8, mean ± SE) of 15.5 ± 1.8. For the same compound, the “MFQ Δ” value ([2]; PP) was −1.0, the “MFQ Δ (%)” value ([2]; PP) was −91% and the “PSQI Δ” value ([2]; PP) was −0.5. For the same compound, the “PSQI Δ (%)” value ([2]; PP) was −16%, the “TFEQ-CR Δ” value ([2]; PP) was 1.7 and the “TFEQ-CR Δ (%)” value ([2]; PP) was 10%. For the same compound, the “TFEQ-EE Δ” value ([2]; PP) was −1.2, the “TFEQ-EE Δ (%)” value ([2]; PP) was −24% and the “TFEQ-UE Δ” value ([2]; PP) was −2.9. For the same compound, the “TFEQ-UE Δ (%)” value ([2]; PP) was −16%, the “LB Volume” value ([3]; ITT, First 4 weeks) was 50374 ± 4107 kg and the “LS Session Volume” value ([3]; ITT, First 4 weeks) was 8734 ± 659 kg. The “UB Session Volume” value ([3]; ITT, First 4 weeks) was 2722 ± 210 kg, the “UB Volume” value ([3]; ITT, First 4 weeks) was 15715 ± 1317 kg and the “LB Volume” value ([3]; ITT, Second 4 weeks) was 56873 ± 4655 kg. The “LS Session Volume” value ([3]; ITT, Second 4 weeks) was 10978 ± 902 kg, the “UB Session Volume” value ([3]; ITT, Second 4 weeks) was 3336 ± 215 kg and the “UB Volume” value ([3]; ITT, Second 4 weeks) was 17437 ± 1298 kg. The “LB Volume ES (d)” value ([3]; ITT) was 0.41, the “LS Session Volume ES (d)” value ([3]; ITT) was 0.79 and the “UB Session Volume ES (d)” value ([3]; ITT) was 0.80. The “UB Volume ES (d)” value ([3]; ITT) was 0.37, the “LB Volume Δ” value ([3]; ITT) was 6499 kg and the “LB Volume Δ (%)” value ([3]; ITT) was 13%. For the same compound, the “LS Session Volume Δ” value ([3]; ITT) was 2244 kg, the “LS Session Volume Δ (%)” value ([3]; ITT) was 26% and the “UB Session Volume Δ” value ([3]; ITT) was 614 kg. The “UB Session Volume Δ (%)” value ([3]; ITT) was 23%, the “UB Volume Δ” value ([3]; ITT) was 1722 kg and the “UB Volume Δ (%)” value ([3]; ITT) was 11%. The “LB Volume” value ([3]; PP, First 4 weeks) was 54729 ± 5724 kg, the “LS Session Volume” value ([3]; PP, First 4 weeks) was 9434 ± 944 kg and the “UB Session Volume” value ([3]; PP, First 4 weeks) was 2869 ± 303 kg. The “UB Volume” value ([3]; PP, First 4 weeks) was 16696 ± 1851 kg, the “LB Volume” value ([3]; PP, Second 4 weeks) was 60345 ± 6263 kg and the “LS Session Volume” value ([3]; PP, Second 4 weeks) was 11915 ± 1281 kg. The “UB Session Volume” value ([3]; PP, Second 4 weeks) was 3463 ± 297 kg, the “UB Volume” value ([3]; PP, Second 4 weeks) was 17923 ± 1749 kg and the “LB Volume ES (d)” value ([3]; PP) was 0.34. The “LS Session Volume ES (d)” value ([3]; PP) was 0.83, the “UB Session Volume ES (d)” value ([3]; PP) was 0.75 and the “UB Volume ES (d)” value ([3]; PP) was 0.26. For the same compound, the “LB Volume Δ” value ([3]; PP) was 5616 kg, the “LB Volume Δ (%)” value ([3]; PP) was 10% and the “LS Session Volume Δ” value ([3]; PP) was 2481 kg. For the same compound, the “LS Session Volume Δ (%)” value ([3]; PP) was 26%, the “UB Session Volume Δ” value ([3]; PP) was 594 kg and the “UB Session Volume Δ (%)” value ([3]; PP) was 21%. The “UB Volume Δ” value ([3]; PP) was 1227 kg and the “UB Volume Δ (%)” value ([3]; PP) was 7%.
